# Test results published in patent US8273386B2, “Use of hop acids in fruit juices, fruit juice concentrates and other beverages to inhibit Alicyclobacillus bacteria” (MillerCoors LLC, priority 2004, dated 2012).
# Legend:
# Type in all cases: cell-based
# [1] = system: Alicyclobacillus acidoterrestris; experiment: Minimal Inhibitory Concentration (MIC) assay, broth dilution in BAM, turbidity scored visually; conditions: for Growth in BAM at pH 4.0 at 45° C.: turbidity after 72 hours
# Procedure: The basic assay was performed by serially diluting the inhibitors using a two-fold dilution series in a nutrient broth. The dilutions provided inhibitor concentrations in the range of 0.025 ppm to 100 ppm. The nutrient broth used was the American Type Culture Collection Bacillus Agar Medium (BAM) (at pH 4.0 and at 45° C.) for the Alicyclobacillus acidoterrestris. All dilution series were inoculated with approximately 10,000 bacteria per 5 ml. broth tube of freshly cultured (using the same medium) cells per 5 ml. of test assay broth. In each assay, an inoculated sample of the broth without any inhibitor addition was used as a control. Growth was evaluated by visually assessing and scoring the development of turbidity in the broth after 72 hours. The results of the studies are summarized in Table 1 which gives the data from testing the effectiveness of the tetrahydroisohumulone, hexahydrocolupulone and colupulone in inhibiting Alicyclobacillus acidoterrestris. […] Hexahydrocolupulone inhibited the Alicyclobacillus acidoterrestris test strain at or above 50 ppm. Colupulone inhibited the Alicyclobacillus acidoterrestris test strain at or above 50 ppm.
# [2] = system: Alicyclobacillus acidocaldarius; experiment: Minimal Inhibitory Concentration (MIC) assay, broth dilution in TSB, turbidity scored visually; conditions: for Growth in TSB at pH 7.0: turbidity after 48 hours; for Concentration inhibiting the Alicyclobacillus acidocaldarius test strain (MIC): TSB, pH 7.0, 48 hours
# Procedure: The basic assay was performed by serially diluting the inhibitors using a two-fold dilution series in a nutrient broth. The dilutions provided inhibitor concentrations in the range of 0.025 ppm to 100 ppm. The nutrient broth used was trypticase soy broth (TSB) (at pH 7.0) for the Alicyclobacillus acidocaldarius. All dilution series were inoculated with approximately 10,000 bacteria per 5 ml. of broth using freshly cultured (using the same medium) cells per 5 ml. of test assay broth. In each assay, an inoculated sample of the broth without any inhibitor addition was used as a control. Growth was evaluated by visually assessing and scoring the development of turbidity in the broth after 48 hours. The results of the studies are summarized in Table 2 which gives the data from testing the effectiveness of the tetrahydroisohumulone and hexahydrocolupulone in inhibiting Alicyclobacillus acidocaldarius. […] Hexahydrocolupulone inhibited the Alicyclobacillus acidocaldarius test strain at or above 0.05 ppm.
# Alicyclobacillus = experiment: Inhibition of Alicyclobacillus in a solid or liquid medium (general statement)
SMILES,Growth in BAM at pH 4.0 at 45° C. ([1]; 0.025 ppm),Growth in BAM at pH 4.0 at 45° C. ([1]; 0.05 ppm),Growth in BAM at pH 4.0 at 45° C. ([1]; 0.1 ppm),Growth in BAM at pH 4.0 at 45° C. ([1]; 0.2 ppm),Growth in BAM at pH 4.0 at 45° C. ([1]; 0.4 ppm),Growth in BAM at pH 4.0 at 45° C. ([1]; 0.8 ppm),Growth in BAM at pH 4.0 at 45° C. ([1]; 1.6 ppm),Growth in BAM at pH 4.0 at 45° C. ([1]; 3.125 ppm),Growth in BAM at pH 4.0 at 45° C. ([1]; 6.25 ppm),Growth in BAM at pH 4.0 at 45° C. ([1]; 12.5 ppm),Growth in BAM at pH 4.0 at 45° C. ([1]; 25 ppm),Growth in BAM at pH 4.0 at 45° C. ([1]; 50 pm),Growth in BAM at pH 4.0 at 45° C. ([1]; 100 ppm),Growth in TSB at pH 7.0 ([2]; 0.025 ppm),Growth in TSB at pH 7.0 ([2]; 0.05 ppm),Growth in TSB at pH 7.0 ([2]; 0.1 ppm),Growth in TSB at pH 7.0 ([2]; 0.2 ppm),Growth in TSB at pH 7.0 ([2]; 0.4 ppm),Growth in TSB at pH 7.0 ([2]; 0.8 ppm),Growth in TSB at pH 7.0 ([2]; 1.6 ppm),other results
"CC(C)=CCC1=C(O)C(C(=O)C(C)C)=C(O)C(CC=C(C)C)(CC=C(C)C)C1=O [Colupulone, colupulone]",++++ growth,++++ growth,++++ growth,++++ growth,++++ growth,++++ growth,++++ growth,++++ growth,++++ growth,++++ growth,++++ growth,No growth,No growth,,,,,,,,
"CC(C)CCC1=C(O)C(C(=O)C(C)C)=C(O)C(CCC(C)C)(CCC(C)C)C1=O [Hexahydrocolupulone, hexahydrocolupulone]",++++ growth,++++ growth,++++ growth,++++ growth,++++ growth,++++ growth,++++ growth,++++ growth,++++ growth,++++ growth,++++ growth,No growth,No growth,++ growth,No growth,No growth,No growth,No growth,No growth,No growth,Growth in TSB at pH 7.0 ([2]; 3.125 ppm): No growth; Growth in TSB at pH 7.0 ([2]; 6.25 ppm): No growth; Growth in TSB at pH 7.0 ([2]; 12.5 ppm): No growth; Growth in TSB at pH 7.0 ([2]; 25 ppm): No growth; Growth in TSB at pH 7.0 ([2]; 50 ppm): No growth; Growth in TSB at pH 7.0 ([2]; 100 ppm): No growth; Concentration inhibiting the Alicyclobacillus acidocaldarius test strain (MIC) [2]: ≥ 0.05 ppm; Concentration effective in inhibiting Alicyclobacillus (Alicyclobacillus): ≥ 0.05 ppm
"CC(C)CCC(=O)C1(O)C(O)=C(C(=O)CC(C)C)C(=O)C1CCC(C)C (stereo not shown) [Tetrahydroisohumulone, tetrahydroisohumulone]",++++ growth,++++ growth,++++ growth,++++ growth,++++ growth,++++ growth,++++ growth,++++ growth,++++ growth,++++ growth,No growth,No growth,No growth,++++ growth,++++ growth,++++ growth,++++ growth,++++ growth,++++ growth,++++ growth,"Growth in TSB at pH 7.0 ([2]; 3.125 ppm): No growth; Growth in TSB at pH 7.0 ([2]; 6.25 ppm): No growth; Growth in TSB at pH 7.0 ([2]; 12.5 ppm): No growth; Growth in TSB at pH 7.0 ([2]; 25 ppm): No growth; Growth in TSB at pH 7.0 ([2]; 50 ppm): No growth; Growth in TSB at pH 7.0 ([2]; 100 ppm): No growth; Concentration inhibiting the Alicyclobacillus acidocaldarius test strain (MIC) [2]: ≥ 3.125 ppm; Concentration inhibiting the Alicyclobacillus acidoterrestris test strain (MIC) ([1]; BAM, pH 4.0, 45° C., 72 hours): ≥ 25 ppm; Concentration effective in inhibiting Alicyclobacillus (Alicyclobacillus): ≥ 3 ppm"
